{
  "source": "patent US5776970A",
  "about": "“Tryptophan derivatives as protein tyrosine kinase blockers and their use in the treatment of neoplastic diseases” (Yeda Research and Development Co. Ltd., priority 1994, dated 1998)",
  "key": {"[1]": {"system": "insulin-stimulated lipogenesis in rat adipocytes", "test": "insulin-stimulated lipogenesis in rat adipocytes ([U-14C]glucose incorporation)", "format": "cell-based", "conditions": "Adipocyte; intact rat adipocytes; insulin 100 ng/ml; 20 min pre-incubation, 60 min at 37° C.; read-out: IC50, insulin-dependent lipogenesis", "protocol": "The fat pads of three rats were cut into small pieces with scissors and digested in 3 ml of Krebs-Ringer-Bicarbonate (KRB)-buffer containing 0.7% bovine serum albumin (BSA) (pH 7.4) with collagenase (1 mg/ml). […] Five ml of buffer was then added, and the cells were squeezed through a mesh screen. The cells were then allowed to stand for several minutes (in a 15 ml plastic test tube at room temperature, floating) and the buffer underneath was removed. This procedure (suspension, floating and removal of buffer underneath) was repeated three times. […] Fat cell suspensions were pre-incubated for 20 min at 37° C. with increasing concentrations of the inhibitors. Results are expressed in FIG. 2 as the percent of maximal stimulation at the indicated concentrations of inhibitors."}, "[2]": {"system": "vanadate-stimulated lipogenesis in rat adipocytes", "test": "vanadate-stimulated lipogenesis in rat adipocytes", "format": "cell-based", "conditions": "Adipocyte, intact rat adipocytes, read-out: IC50, insulin-like effects of vanadate ions (lipogenesis)"}, "[3]": {"system": "isoproterenol-mediated lipolysis", "test": "isoproterenol-mediated lipolysis in rat adipocytes (glycerol release)", "format": "cell-based", "protocol": "In general there are two classes of protein kinases (PKs) in mammalian tissues: (a) PKs which phosphorylate tyrosine moieties in proteins (to phosphotyrosine), and (b) PKs which phosphorylate serine and threonine moieties (to phosphoserine and phosphotreonine). […] An example for such a metabolic effect is lipolysis which depends on protein kinase A. Rat adipocytes (prepared by the method of Rodbell, 1964) were incubated with isoproterenol alone (1 μM) or isoproterenol with CBZ-DNPS-TRP-TAU (200 μM) for one hour at 37° C. The amount of glycerol released from the cells was then determined by spectroscopic procedure (Shechter, 1982)."}, "[4]": {"system": "murine T-cell lymphoma (LB3)", "test": "insulin-dependent proliferation of murine T-cell lymphoma (LB3), thymidine incorporation", "format": "cell-based", "protocol": "(§1) LB cells were removed from the peritoneal cavity of BALB/c mice, washed and resuspended in RPMI-1640. Then a continuous line designated LB3 was established in \"LB medium\" (50% RPMI-1640 plus 50% DCCM-1 in 10% fetal calf serum (FCS)). The LB3 cells were incubated (37° C., 5% CO2) in microplate wells (Nunc, Roskilde, Denmark) with 0.2 ml RPMI-1640 alone and in the same medium containing insulin, fetal calf serum (FCS) or both, and different concentrations of the compound CBZ-DNPS-TRP-TAU as indicated in FIG. 3. Proliferation capacity was determined by thymidine incorporation (^3 H-TdR, 1 μCi/well, specific activity 5 Ci/mM), added to the cells 24 hours later. In a typical experiment, cpm of ^3 H-thymidine incorporated into 30,000 cells was 12-14 fold higher in the presence of insulin or other mitogens than in their absence."}, "LB3 cells": {"system": "LB3 cells", "test": "LB3 cell proliferation in response to various mitogens (IL-2, growth hormone, PMA)", "format": "cell-based, murine", "protocol": "as §1\nExperimental conditions were as described in Example 6 except that lower concentrations of mitogens were applied here (those triggering 50% of maximal proliferation): insulin, interleukin-2 (IL-2), growth hormone and PMA. PMA is an activator of protein kinase C. Protein kinase C in this cell type triggers proliferation by a pathway which is only partially dependent on endogenous tyrosine phosphorylation."}, "rat adipocytes": {"system": "rat adipocytes", "test": "permeability into cell interiors (intact cell system, lipogenesis)", "format": "cell-based", "conditions": "graded in words", "protocol": "Rat adipocytes were prepared essentially by the method of Rodbell, 1964. The fat pads of three rats were cut into small pieces with scissors and digested in 3 ml of Krebs-Ringer-Bicarbonate (KRB)-buffer containing 0.7% bovine serum albumin (BSA) (pH 7.4) with collagenase (1 mg/ml). The digestion was performed in a 25 ml flexible plastic bottle under an atmosphere of carbogen (95% O2, 5% CO2) for 40 min at 37° C. with vigorous shaking. Five ml of buffer was then added, and the cells were squeezed through a mesh screen. The cells were then allowed to stand for several minutes (in a 15 ml plastic test tube at room temperature, floating) and the buffer underneath was removed. This procedure (suspension, floating and removal of buffer underneath) was repeated three times. For [^14 C-U]glucose incorporation (lipogenesis), the fat cell suspensions (3×10^5 cells/ml) were divided into plastic vials (0.5 ml per vial) and incubated for 60 min at 37° C. under an atmosphere of 95% O2, 5% CO2, with 0.2 mM [U-^14 C]glucose, in either the presence or absence of insulin (100 ng/ml) and the indicated concentrations in FIG. 2 of CBZ-DNPS-TRP-TAU. The reaction was terminated by adding toluene-based scintillation fluid (1.0 ml per vial) and the extracted lipids were counted (Shechter and Karlish, 1980). Fat cell suspensions were pre-incubated for 20 min at 37° C. with increasing concentrations of the inhibitors. Results are expressed in FIG. 2 as the percent of maximal stimulation at the indicated concentrations of inhibitors. In all experiments insulin-stimulated lipogenesis was 4- to 5-fold higher than basal; basal ~2000 cpm per 3×10^5 cells/h; Vinsulin 8000-10,000 cpm per 3×10^5 cells/h.\n(§2) Various derivatives according to the invention in which R^1 is benzyloxycarbonyl (CBZ) or t-butoxycarbonyl (t-Boc), R^2 is --SO3 H or --PO3 H, n is 1,2 or 3, and R^3 is H, 2-nitrophenylthio (NPS) or 2,4-dinitrophenylthio (DNPS) were prepared and examined in cell-free and intact cell systems. The cell-free assay is PolyGlu4 Tyr phosphorylation by partially purified insulin receptor as described in Example 3. The assay in intact cells (namely, lipogenesis) was carried out as described in Example 4."}, "[5]": {"target": "insulin receptor tyrosine kinase (InsRTK) (Rattus norvegicus, UniProt P15127)", "sequence (P15127 764-1383 limits assumed)": "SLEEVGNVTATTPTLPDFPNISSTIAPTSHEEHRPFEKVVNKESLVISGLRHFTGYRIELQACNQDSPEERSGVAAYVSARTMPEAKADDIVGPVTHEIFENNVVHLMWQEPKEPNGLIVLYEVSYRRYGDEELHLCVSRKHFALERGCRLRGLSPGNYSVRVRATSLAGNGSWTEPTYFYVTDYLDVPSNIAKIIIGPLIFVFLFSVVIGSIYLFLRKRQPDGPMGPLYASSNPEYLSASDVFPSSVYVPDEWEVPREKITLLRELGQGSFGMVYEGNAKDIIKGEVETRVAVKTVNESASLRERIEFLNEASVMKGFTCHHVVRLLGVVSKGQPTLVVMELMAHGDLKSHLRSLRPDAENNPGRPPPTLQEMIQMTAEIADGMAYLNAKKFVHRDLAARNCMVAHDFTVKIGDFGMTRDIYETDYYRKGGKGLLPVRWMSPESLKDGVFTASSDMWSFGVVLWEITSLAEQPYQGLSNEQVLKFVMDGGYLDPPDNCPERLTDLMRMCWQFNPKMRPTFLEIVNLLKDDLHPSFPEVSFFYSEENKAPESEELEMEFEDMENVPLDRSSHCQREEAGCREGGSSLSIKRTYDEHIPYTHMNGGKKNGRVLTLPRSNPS", "sequence (P15127 27-759 partner limits assumed)": "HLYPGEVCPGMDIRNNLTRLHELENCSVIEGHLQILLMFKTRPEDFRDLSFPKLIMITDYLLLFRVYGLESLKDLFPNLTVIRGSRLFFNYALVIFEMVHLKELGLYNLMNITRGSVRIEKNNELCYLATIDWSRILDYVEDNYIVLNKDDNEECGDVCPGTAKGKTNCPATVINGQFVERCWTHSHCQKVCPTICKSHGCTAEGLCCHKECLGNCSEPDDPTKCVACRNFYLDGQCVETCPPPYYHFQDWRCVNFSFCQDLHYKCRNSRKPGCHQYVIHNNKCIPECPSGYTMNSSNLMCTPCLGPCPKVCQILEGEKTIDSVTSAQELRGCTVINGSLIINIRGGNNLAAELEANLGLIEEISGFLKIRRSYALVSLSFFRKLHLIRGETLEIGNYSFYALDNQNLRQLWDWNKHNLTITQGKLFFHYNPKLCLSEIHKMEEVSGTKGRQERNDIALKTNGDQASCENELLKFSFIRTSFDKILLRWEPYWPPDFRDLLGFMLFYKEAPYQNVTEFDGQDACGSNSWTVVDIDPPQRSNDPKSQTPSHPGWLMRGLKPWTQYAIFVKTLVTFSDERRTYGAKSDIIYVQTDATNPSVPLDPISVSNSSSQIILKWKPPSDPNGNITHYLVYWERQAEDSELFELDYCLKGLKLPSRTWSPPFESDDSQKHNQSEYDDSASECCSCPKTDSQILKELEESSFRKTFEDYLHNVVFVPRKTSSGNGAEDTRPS", "test": "PolyGlu4 Tyr phosphorylation by partially purified (wheat-germ-agglutinin purified) rat liver insulin receptor, cell-free", "format": "biochemical", "set-up": "wheat-germ-agglutinin purified rat liver insulin receptor; from tissue; host or cells: rat liver (wheat-germ-agglutinin purified)", "protocol": "An assay of PolyGlu4 Tyr phosphorylation by partially purified insulin receptor was run for 30 min at 22° C. in 60 μl of 50 mM Hepes (pH 7.4)-0.1% Triton X-100 containing wheat-germ-agglutinin purified rat liver insulin receptor (1 μg protein), MgCl2 25 mM; MnCl2, 1 mM, ATP 17 μM, insulin 0.1 μM, PolyGlu4 Tyr, 0.17 mg/ml and the indicated concentrations in FIG. 1 of CBZ-DNPS-TRP-TAU. Phosphotyrosine content in PolyGlu4 Tyr was determined by a radioimmunoassay procedure (Shisheva et al., 1991). […] The inhibitory potency of other derivatives of formula I on InsRTK-catalyzed PolyGlu4 Tyr phosphorylation in cell-free experiments was determined. […] For comparison, the IC50 values for AC-TRP-TAU and L-tryptophan are 5 mM and >30 mM, respectively.\nas §2"}},
  "data": [
    {"smiles": "O=C(N[C@@H](Cc1c(Sc2ccc([N+](=O)[O-])cc2[N+](=O)[O-])[nH]c2ccccc12)C(=O)NCCS(=O)(=O)O)OCc1ccccc1", "note": "[CBZ-DNPS-TRP-TAU]", "values": [
      {"measurement": "IC50", "setting": "[1]", "result": 170, "unit": "µM"},
      {"measurement": "IC50", "setting": "[2]", "result": 45, "unit": "µM"},
      {"measurement": "effect in inhibiting isoproterenol-mediated lipolysis", "setting": "[3]; 200 μM, isoproterenol 1 μM, one hour at 37° C.", "result": "negligible effect"},
      {"measurement": "Amount of glycerol released", "setting": "[3]; CBZ-DNPS-TRP-TAU 200 μM plus isoproterenol 1 μM", "result": 154, "unit": "nmol/3 × 10^5 cells/3 h"},
      {"measurement": "activity at 200 µM", "setting": "[3]; Rattus norvegicus, Adipocyte, CBZ-DNPS-TRP-TAU 200 μM plus isoproterenol 1 μM, read-out: Percent lipolysis", "result": 93, "unit": "%"},
      {"measurement": "concentration range lower than that required to inhibit normal metabolic biological effects of insulin", "setting": "[4]; LB3 proliferation vs lipogenesis in rat adipocytes (FIG. 2)", "result": "~200", "unit": "times"},
      {"measurement": "IC50", "setting": "[4]; Mus musculus, T-cell, LB3, insulin-dependent, thymidine added 24 hours later", "result": 0.95, "unit": "µM"},
      {"measurement": "inhibition of IL-2-dependent proliferation of the T-cell lymphoma", "setting": "LB3 cells; IL-2 at 50% of maximal proliferation", "result": "blocks"},
      {"measurement": "inhibition of protein kinase C-dependent proliferation", "setting": "LB3 cells; PMA at 50% of maximal proliferation", "result": "at significantly higher concentrations"},
      {"measurement": "inhibition of growth hormone-dependent proliferation of the T-cell lymphoma", "setting": "LB3 cells; growth hormone at 50% of maximal proliferation", "result": "blocks"},
      {"measurement": "Permeability into cell interiors", "setting": "rat adipocytes", "result": "excellent"},
      {"measurement": "solubility", "setting": "solubility; dmf, organic solvent or mixture", "result": 20, "unit": "mM"},
      {"measurement": "solubility", "setting": "solubility; dmso, organic solvent or mixture", "result": 20, "unit": "mM"},
      {"measurement": "solubility", "setting": "solubility; water", "result": "≤ 2", "unit": "mM"},
      {"measurement": "IC50", "setting": "[5]", "result": 130, "unit": "µM"}
    ]}
  ]
}
